Laboratory results taken from ChEMBL document CHEMBL1201862, “PubChem BioAssay data set” (2004).
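Compound exposure: 48 hours, 5 concentrations, 96-well plates. Abbreviation: GI50, concentration required for 50% inhibition of growth.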 Activity calls are given as the source filed them. Rule as the data show it: active = GI50 up to about 1.1 µM and inactive = higher.

Experiments:
Assay in all cases: NCI anticancer screen, dose series, 48 h
[1] = system: OVCAR-8
[2] = system: SK-OV-3
[3] = system: HT-29
[4] = system: SK-MEL-5
[5] = system: EKVX
[6] = system: IGROV-1
[7] = system: A498
[8] = system: NCI-H23
[9] = system: LOX IMVI
[10] = system: OVCAR-4
[11] = system: Hs-578T
[12] = system: NCI-H522
[13] = system: MDA-MB-435
[14] = system: KM12
[15] = system: A549
[16] = system: SF-295
[17] = system: RXF 393
[18] = system: TK-10
[19] = system: MDA-N

Measured: GI50

COCc1nc(N)nc(N2N=C(C)CC2(C)C)n1
inactive: [1] > 100 µM | [2] > 100 µM | [3] > 100 µM | [4] > 100 µM | [5] > 100 µM | [6] > 100 µM | [7] > 100 µM | [8] > 100 µM | [9] > 100 µM | [10] > 100 µM | [11] > 100 µM | [12] > 100 µM | [13] > 100 µM | [14] > 100 µM | [15] > 100 µM | [16] > 100 µM | [17] > 100 µM | [18] > 100 µM

CN(C)C1(N(C)C)Oc2c(c(=O)n(C)c(=O)n2C)C(c2ccccc2)C1(F)F (centres undefined)
inactive: [2] > 100 µM | [4] > 100 µM | [5] > 100 µM | [7] > 100 µM | [8] > 100 µM | [9] > 100 µM | [10] > 100 µM | [13] > 100 µM | [14] > 100 µM | [15] > 100 µM | [16] > 100 µM | [17] > 100 µM | [18] > 100 µM

O=[N+]([O-])c1ccc(/C=C(/c2ccc([N+](=O)[O-])o2)S(=O)(=O)c2ccccc2)cc1
inactive: [1] 29.4 µM | [2] > 100 µM | [3] 41.1 µM | [4] 13.9 µM | [6] 75.5 µM | [8] 59 µM | [10] 57 µM | [11] 26.1 µM | [12] 39.4 µM | [13] 60.8 µM | [14] 41.1 µM | [15] > 100 µM | [16] > 100 µM | [17] > 100 µM | [18] > 100 µM

O=C(CSc1nc2ccc(I)cc2c(=O)n1Cc1ccccc1)NN1C(=O)CCC1=O
inactive: [1] 37.6 µM | [2] 52 µM | [3] 48.6 µM | [19] 83.4 µM | [4] 48.4 µM | [5] 34.1 µM | [6] 29.9 µM | [8] 17.6 µM | [9] 59.3 µM | [10] 21.5 µM | [12] 20.4 µM | [13] 64.1 µM | [14] 37.2 µM | [15] 49.4 µM | [16] 37.9 µM | [17] 25.5 µM | [18] 84.5 µM

[N-]=[N+]=Nc1c(Cc2ccccc2)c(=O)oc2ccccc12
inactive: [2] 32.1 µM | [3] 21.7 µM | [4] 2.67 µM | [6] 21.5 µM | [8] 26.4 µM | [9] 14.2 µM | [10] 32.4 µM | [11] 19.1 µM | [13] 22.3 µM | [15] 32.5 µM | [16] 33.4 µM | [17] 16.7 µM | [18] 28.2 µM

Oc1c2cc(Cl)cc1COCc1cc(Cl)cc(c1O)COCc1cc(Cl)cc(c1O)COC2
inactive: [1] 11.8 µM | [2] 59.6 µM | [4] > 100 µM | [5] 54 µM | [6] 17 µM | [7] 82.8 µM | [8] 20.8 µM | [9] 36.7 µM | [10] 23 µM | [13] 40.7 µM | [14] 84.3 µM | [15] 34.8 µM | [16] > 100 µM | [17] 18.3 µM | [18] 46.8 µM

CCCCn1c(-c2ccccc2)cs/c1=N\N=C1C=C(C(C)(C)C)C(=O)C(C(C)(C)C)=C1
inactive: [1] > 100 µM | [3] > 100 µM | [5] > 100 µM | [6] > 100 µM | [7] > 100 µM | [8] > 100 µM | [9] > 100 µM | [10] > 100 µM | [15] > 100 µM | [16] > 100 µM | [17] > 100 µM | [18] > 100 µM

Cc1ccc(C2SCC(=O)N2NC(=O)c2ccncc2)s1 (centres undefined)
inactive: [1] > 100 µM | [2] > 100 µM | [3] > 100 µM | [19] > 100 µM | [4] > 100 µM | [5] > 100 µM | [6] > 100 µM | [7] > 100 µM | [8] > 100 µM | [9] > 100 µM | [10] > 100 µM | [12] > 100 µM | [13] > 100 µM | [14] > 100 µM | [15] > 100 µM | [16] > 100 µM | [17] > 100 µM | [18] > 100 µM

O=C1CCCCC/C1=C\c1cccc(F)c1
inactive: [1] > 100 µM | [2] > 100 µM | [3] 60.5 µM | [19] 62.5 µM | [4] 66.7 µM | [5] 73.8 µM | [6] 58.9 µM | [7] > 100 µM | [13] 55.2 µM | [14] 59.2 µM | [15] > 100 µM | [16] > 100 µM | [17] > 100 µM | [18] 62.5 µM

CCSC(=O)/C=C1\CN(C(=O)OC(C)(C)C)C1C(=O)OC(C)(C)C (centres undefined)
inactive: [1] 2.91 µM | [2] 13.8 µM | [3] 4.23 µM | [4] 3.37 µM | [5] 10.5 µM | [6] 4.28 µM | [7] 11.2 µM | [8] 2.6 µM | [9] 1.45 µM | [10] 2.38 µM | [11] 4.17 µM | [12] 2.49 µM | [13] 2.74 µM | [14] 3.38 µM | [15] 12.1 µM | [16] 12.1 µM | [17] 1.91 µM | [18] 2.59 µM

COc1ccc(C(=O)/C=C/c2ccc(OCCCOc3ccc(/C=C/C(=O)c4ccc(OC)c(OC)c4)cc3)cc2)cc1OC
inactive: [1] > 100 µM | [2] > 100 µM | [3] > 100 µM | [19] > 100 µM | [4] > 100 µM | [5] > 100 µM | [6] > 100 µM | [10] > 100 µM | [11] > 100 µM | [13] > 100 µM | [14] > 100 µM | [15] > 100 µM | [16] > 100 µM | [17] > 100 µM | [18] > 100 µM

COc1ccc(-c2c3c(n(C4OC(CO)C(O)C(O)C4O)c(=S)c2C#N)CCC3)cc1 (centres undefined)
inactive: [2] 91.4 µM | [3] 40.1 µM | [19] 53.8 µM | [4] 14.8 µM | [6] 48.6 µM | [8] 28.7 µM | [9] 42.1 µM | [10] 79.1 µM | [11] 38.7 µM | [13] 33.3 µM | [14] 59.3 µM | [15] 68.9 µM | [16] 31.9 µM | [17] 22.4 µM | [18] > 100 µM

Cc1cc(S(=O)(=O)/N=C2\NCCN2Cc2ccccc2)c(S)cc1Cl
inactive: [1] > 100 µM | [2] > 100 µM | [3] > 100 µM | [19] > 100 µM | [4] > 100 µM | [5] > 100 µM | [6] > 100 µM | [8] > 100 µM | [9] > 100 µM | [10] > 100 µM | [12] 40.6 µM | [13] > 100 µM | [14] > 100 µM | [15] > 100 µM | [16] 81.7 µM | [18] > 100 µM
